Series [1] concerns CD1 mice. The series is described as follows: Radiant heat tail flick analgesia, icv, CD1 mice. It is filed as in vivo, mouse. Conditions: ED50, cumulative dose-response, tail flick 15 min after icv dose.
Series [2] has as its system CD1 mice. The series is described as follows: Radiant heat tail flick analgesia, sc, CD1 mice. Conditions: Mus musculus, 0.25 h, ED50, cumulative dose-response, tail flick 15 min after sc dose. It is filed as in vivo.
In series [3] the target is T1, MOR-1 (Mus musculus, UniProt P42866).
T1 construct: expressed in transfected cells; host or cells: CHO
In words: [35S]GTPγS functional assay, MOR-1 transfected cell membranes. Type of series: biochemical. The arrangement: Emax: dose or concentration left out as unconfirmed. The note with it: for Emax: read-out: MOR-1 Emax (%).

For series [4], the target named is T1, MOR-1. In words: Competition binding against 125I-IBNtxA in MOR-1/CHO membranes.
Series [5] has as its target T2, KOR-1 (Mus musculus, UniProt P33534).
T2 construct: expressed in transfected cells; host or cells: CHO
In words: Competition binding against 125I-IBNtxA in KOR-1/CHO membranes.

Series [6] has as its target T3, DOR-1 (Mus musculus, UniProt P32300).
T3 construct: expressed in transfected cells; host or cells: CHO
The series is described as follows: Competition binding against 125I-IBNtxA in DOR-1/CHO membranes.

Series [7] addresses T2, KOR-1. The series is described as follows: [35S]GTPγS functional assay, KOR-1 transfected cell membranes. It is filed as biochemical.
Another series deals with 129/Sv mice. The series is described as follows: Tail flick antinociception icv in 129/Sv mice (wild type and Exon11 knockout). Conditions: 15 min. It is filed as in vivo, mouse.
For series [8], the system named is CD1 mice. The series is described as follows: Reversal of tail flick antinociception by selective opioid antagonists, CD1 mice. Type of series: in vivo, mouse. Conditions: VM1501 1.0 mg/kg sc, VM1502 1.5 mg/kg sc.
Series [9] has as its system mice. In words: Antisense oligodeoxynucleotide downregulation, tail flick antinociception. Type of series: in vivo, mouse. Conditions: antisense icv days 1, 3, 5, test day 6; VM1501 1.0 mg/kg sc, VM1502 1.5 mg/kg sc.
Series [10] deals with mice. In words: Gastrointestinal motility assay (charcoal meal transit). The note with it: FIG. 8D: VM1501 0.5 and 1 mg/kg, 30 min.
For series [11], the system named is CD1 mice. The series is described as follows: Respiratory depression assessment (MouseOx pulse oximeter breath rate).
Series [12] concerns the target T3, DOR-1. The series is described as follows: [35S]GTPγS functional assay, DOR-1 transfected cell membranes. Type of series: biochemical. Conditions: for IC50: antagonism of 100 nM DPDPE, read-out: DOR-1 IC50; for EC50: agonist stimulation of [35S]GTPγS binding.
The subject of a further series is CD1 male mice. In words: Tolerance study, chronic twice daily dosing, tail flick. The note with it: Mus musculus, sc, 0 h, read-out: analgesic ED50, naïve (day 0).
Where [13] appears, read: FIG. 8C: VM1501 2.5 mg/kg sc (5x ED50), morphine 10 mg/kg, 50 min post-injection.
Setting [14] is: 125I-IBNtxA (0.1 nM), CHO membranes, cloned mouse receptor, read-out: Affinity (Ki nM) KOR-1.
[15] abbreviates: 125I-IBNtxA (0.1 nM), CHO membranes, cloned mouse receptor, read-out: Affinity (Ki nM) DOR-1.
Setting [16] is: agonist stimulation of [35S]GTPγS binding, read-out: MOR-1 EC50.
[17] abbreviates: antagonism of 100 nM U50,488H, read-out: KOR-1 IC50.
Setting [18] is: FIG. 14, 5x antinociceptive ED50: VM1502 3.75 mg/kg sc, VM1512 5.0 mg/kg sc, morphine 10 mg/kg.

Where two headings read alike, the source gives them in different places. Some results are limits rather than exact numbers.

This is an account of results in patent US12617790B2, “Mitragynine analogs and uses thereof” (Memorial Sloan-Kettering Cancer Center, priority 2015, dated 2026).

On to `CC[C@@H]1CN2CCc3c([nH]c4cccc(OC)c34)[C@@H]2C[C@@H]1/C(=C\OC)C(=O)OC` [VM1500, (E)-Methyl-2-((2S,3S,12bS)-3-ethyl-8-methoxy-1,2,3,4,6,7,12,12b-octahydroindolo[2,3-a]quinolizin-2-yl)-3-methoxyacrylate], for which, in the series on CD1 mice [1], the “Analgesia icv” value came to 42 µg. Besides, the 50% effect level in the series with CD1 mice [2] (ED50) was put at a dose of 166 mg/kg. In addition, the Emax at MOR-1 [3] was determined as 65%.

As to `CC[C@@H]1CN2CC[C@@]3(O)C(=Nc4cccc(OC)c43)C2C[C@@H]1/C(=C\OC)C(=O)OC` (stereo partly drawn) [VM1501, (E)-methyl-2-((2S,3S,7aS)-3-ethyl-7a-hydroxy-8-methoxy-1,2,3,4,6,7,7a,12b-octahydroindolo[2,3-a]quinolizin-2-yl)-3-methoxyacrylate], the Ki on MOR-1 [4] is 0.037 µM; on KOR-1 [5], 132 nM; at DOR-1 [6], 91 nM. Also, in the series on CD1 mice [1], the “Analgesia icv” value was 0.06 µg. Also, in the series with CD1 mice [2], the 50% effect level (ED50) was put at a dose of 0.46 mg/kg. A half-maximal effect on MOR-1 [3] (EC50) was put at 0.053 µM. This molecule also registered a half-inhibitory concentration (IC50) against KOR-1 [7] of 2.52 µM. Moreover, the “ED50 antinociception icv, Exon11 knockout” value in the series on 129/Sv mice (129/Sv Exon11 knockout mice) amounted to 0.83 µg. Also, the “ED50 antinociception icv, wild type” value in the series on 129/Sv mice (129/Sv wild type mice) was determined as 0.022 µg. Besides, in the series on CD1 mice [8], the “antinociception after NTI (0.5 mg/kg sc) and norBNI (10 mg/kg sc)” value was “insensitive to NTI and norBNI”. Also, the “antinociception after β-FNA (40 mg/kg sc)” value in the series with CD1 mice [8] is “antagonized by β-FNA”. In addition, in the series on mice [9], the “analgesic response after antisense downregulation” value is on record as “diminished in MOR-1-downregulated mice”. Further, the gastrointestinal transit result in the series with mice [10] is given as “did not lower transit significantly compared with saline”. Also, the respiratory rate entry with CD1 mice [11] (setting [13]) is given as “did not depress respiratory rate”.

Take `CC[C@@H]1CN2CC[C@]3(Nc4ccccc4C3=O)C2C[C@@H]1/C(=C\OC)C(=O)OC` (stereo partly drawn) [VM1508, (E)-methyl 2-((1'S,6'S,7'S)-6′-ethyl-3-oxo-3′,5′,6′,7′,8′,8a′-hexahydro-2′H-spiro[indoline-2,1′-indolizine]-7′-yl)-3-methoxyacrylate]: the figures for the Ki on MOR-1 [4], on KOR-1 [5] (setting [14]) and on DOR-1 [6] (setting [15]) were 0.00046 µM, 19 nM and 2.9 nM, respectively. This molecule also registered an ED50 with CD1 mice [2] of 0.24 mg/kg. On MOR-1 [3] (setting [16]), the EC50 stood at 0.0014 µM. Further, the Emax at MOR-1 [3] was 116%. Besides, the concentration for half-maximal inhibition (IC50) at KOR-1 [7] (setting [17]) is 0.252 µM; at DOR-1 [12], 0.193 µM.

Take `CC[C@@H]1CN2CC[C@]3(Nc4cccc(C#N)c4C3=O)C2C[C@@H]1/C(=C\OC)C(=O)OC` (stereo partly drawn) [VM1509, (E)-methyl 2-((1'S,6'S,7'S)-4-cyano-6′-ethyl-3-oxo-3′,5′,6′,7′,8′,8a′-hexahydro-2′H-spiro[indoline-2,1′-indolizine]-7′-yl)-3-methoxyacrylate]: the Ki amounted to 0.0005 µM at MOR-1 [4], 47 nM at KOR-1 [5] (setting [14]) and 2.4 nM at DOR-1 [6] (setting [15]). Also, the ED50 in the series with CD1 mice [2] turned out to be 0.32 mg/kg. Besides, the 50% effective concentration (EC50) on MOR-1 [3] (setting [16]) was 0.0007 µM. In addition, the Emax on MOR-1 [3] worked out at 122%. The results for the IC50 at KOR-1 [7] (setting [17]) and on DOR-1 [12] were 0.721 µM and 0.073 µM, respectively.

Consider `CC[C@@H]1CN2CC[C@]3(Nc4cccc(-c5ccccc5)c4C3=O)C2C[C@@H]1/C(=C\OC)C(=O)OC` (stereo partly drawn) [VM1511, (E)-methyl 2-((1'S,6'S,7'S)-6′-ethyl-3-oxo-4-phenyl-3′,5′,6′,7′,8′,8a′-hexahydro-2′H-spiro[indoline-2,1′-indolizine]-7′-yl)-3-methoxyacrylate], for which the Ki on MOR-1 [4] amounted to 0.00091 µM; at KOR-1 [5] (setting [14]), 51 nM; on DOR-1 [6] (setting [15]), 0.8 nM. In the series on CD1 mice [2], this molecule showed a median effective dose (ED50) of 1 mg/kg. The figures for the EC50 on MOR-1 [3] (setting [16]) and at DOR-1 [12] were 0.0014 µM and 0.00083 µM, respectively. The Emax at MOR-1 [3] came to 123%; at DOR-1 [12] (percent maximal stimulation relative to DPDPE, read-out: DOR-1 Emax (value in parentheses after EC50)) it was 89%. For the same molecule, the IC50 on KOR-1 [7] (setting [17]) was found to be 0.171 µM.

Consider `CC[C@@H]1CN2CC[C@]3(Nc4cccc(-c5ccoc5)c4C3=O)C2C[C@@H]1/C(=C\OC)C(=O)OC` (stereo partly drawn) [VM1512, (E)-methyl 2-((1'S,6'S,7'S)-6′-ethyl-4-(furan-3-yl)-3-oxo-3′,5′,6′,7′,8′,8a′-hexahydro-2′H-spiro[indoline-2,1′-indolizine]-7′-yl)-3-methoxyacrylate], for which the Ki amounted to 0.00094 µM on MOR-1 [4], 39 nM on KOR-1 [5] (setting [14]) and 1.5 nM on DOR-1 [6] (setting [15]). Besides, it took a dose of 1.1 mg/kg to reach the 50% effect level in the series on CD1 mice [2] (ED50). For the same molecule, the EC50 on MOR-1 [3] (setting [16]) was 0.0015 µM. Also, the figures for the IC50 on KOR-1 [7] (setting [17]) and at DOR-1 [12] were 0.202 µM and 0.039 µM, respectively. For the same molecule, the respiratory rate result with CD1 mice [11] (setting [18]) is on record as “showed no signs respiratory depression”.

On to `CC[C@@H]1CN2CCC3(Nc4c(-c5ccoc5)ccc(OC)c4C3=O)C2C[C@@H]1/C(=C\OC)C(=O)OC` (stereo partly drawn) [VM1514, Methyl (E)-2-((6'S,7'S)-6′-ethyl-7-(furan-3-yl)-4-methoxy-3-oxo-2′,3′,6′,7′,8′,8a′-hexahydro-5′H-spiro[indoline-2,1′-indolizin]-7′-yl)-3-methoxyacrylate], for which the Ki was 0.041 µM on MOR-1 [4], 119 nM on KOR-1 [5] (setting [14]) and 40 nM on DOR-1 [6] (setting [15]). Moreover, the EC50 on MOR-1 [3] (setting [16]) was over 1 µM; on KOR-1 [7] (agonist stimulation of [35S]GTPγS binding) it was 0.04 µM; on DOR-1 [12], 0.244 µM.

For the molecule `CC[C@@H]1CN2CC[C@@]3(O)C(=Nc4ccccc43)[C@@H]2C[C@@H]1/C(=C\OC)C(=O)OC` [VM1522, Methyl (E)-2-((2S,3S,7aS,12bS)-3-ethyl-7a-hydroxy-1,2,3,4,6,7,7a,12b-octahydroindolo[2,3-a]quinolizin-2-yl)-3-methoxyacrylate], the Ki on MOR-1 [4] was 0.023 µM; at KOR-1 [5] (setting [14]), 781 nM; on DOR-1 [6] (setting [15]), 147 nM. Also, the “Analgesia icv” value with CD1 mice [1] came to 0.1 µg. The EC50 on MOR-1 [3] (setting [16]) stood at 0.034 µM. Also, the Emax at MOR-1 [3] was 116%.

On to `CC[C@@H]1CN2CCc3c([nH]c4cccc(O)c34)[C@@H]2C[C@@H]1/C(=C\OC)C(=O)OC` [VM1532, Methyl (E)-2-((2S,3S,12bS)-3-ethyl-8-hydroxy-1,2,3,4,6,7,12,12b-octahydroindolo[2,3-a]quinolizin-2-yl)-3-methoxyacrylate], for which the Ki at MOR-1 [4] is 0.207 µM; at KOR-1 [5] (setting [14]), 769 nM; at DOR-1 [6] (setting [15]), 532 nM. For the same molecule, the “Analgesia icv” value in the series on CD1 mice [1] amounted to 9 µg. For the same molecule, the EC50 on MOR-1 [3] (setting [16]) came out at 0.422 µM. Also, the maximal response (Emax) on MOR-1 [3] worked out at 62%.

As to `CC[C@@H]1CN2CCc3c([nH]c4ccccc34)[C@@H]2C[C@@H]1/C(=C\OC)C(=O)OC` [VM1540, Methyl (E)-2-((2S,3S,12bS)-3-ethyl-1,2,3,4,6,7,12,12b-octahydroindolo[2,3-a]quinolizin-2-yl)-3-methoxyacrylate], the “Analgesia icv” value in the series on CD1 mice [1] amounted to 0.1 µg. For the same molecule, the Emax at MOR-1 [3] worked out at 74%.

Regarding `CN1CC[C@]23c4c5ccc(O)c4O[C@H]2[C@@H](O)C=C[C@H]3[C@H]1C5` [morphine, reference compound], in the series with CD1 mice [1], the “Analgesia icv” value amounted to 0.53 µg. Further, the ED50 in the series with CD1 mice [2] is 4.6 mg/kg; in the series with CD1 male mice it was 2 mg/kg. The respiratory rate entry in the series on CD1 mice [11] (setting [13]) was “caused respiratory depression”; in the series with CD1 mice [11] (FIG. 12D, 2x antinociceptive ED50: VM1502 1.2 mg/kg sc, morphine 5 mg/kg), “caused respiratory depression”; with CD1 mice [11] (FIG. 12D, 5x antinociceptive ED50: VM1502 3 mg/kg sc, morphine 10 mg/kg), “caused respiratory depression”; with CD1 mice [11] (setting [18]) it was “caused respiratory depression”.

Take `Oc1ccc2c3c1O[C@H]1c4[nH]c5c(c4C[C@@]4(O)[C@@H](C2)N(CC2CC2)CC[C@]314)C[C@@]1(O)[C@H]2Cc3ccc(O)c4c3[C@@]1(CCN2CC1CC1)[C@H]5O4` [norBNI, norbinaltorphimine, reference compound]: at KOR-1 [5] (setting [14]), the inhibition constant Ki came to 0.23 nM. In addition, on KOR-1 [7] (setting [17]), the IC50 is 0.0029 µM.
